These results are taken from patent US20130203790A1, “SULFUR-CONTAINING COMPOUNDS AS ANTI-PROLIFERATIVE AGENTS” (221076 ONTARIO INC., priority 2011, published 2013).

In assay [1] the test system is platelets in platelet rich plasma (ADP, collagen and TRAP agonists). The experiment in a line: Platelet inhibition assay in platelet rich plasma (light transmission aggregometry, Chrono-Log System). The assay is classed as cell-based, human. The settings on record: for inhibitory activity observed in PRP: any agonist tested (ADP, collagen, TRAP), compound 10, 25, 50 and 100 μM. Here is the method: (§1) Platelet function studies were performed simultaneously in both whole blood (using whole blood impedance platelet aggregometry with a Multiplate System) and platelet rich plasma (light transmission aggregometry with a Chrono-Log System). Blood was collected from healthy individuals into vacutainers containing 3.2% (w/v) citrate and was used within 3 hours of collection. Platelet rich plasma (“PRP”) was prepared by centrifugation at 170 g for 15 minutes, and the platelet count measured and adjusted to 250×109/L for use in the light transmission aggregometry studies.
(§2) Each compound was tested at final concentrations of 10, 25, 50 and 100 μM. For each test, the compound was diluted 1/100 into the PRP or whole blood to obtain the final concentrations listed. The PRP or whole blood sample was allowed to stir in the aggregometer for 3 minutes prior to agonist addition. One compound was tested each day.
(§3) As a positive control to verify the sensitivity to inhibition of thrombin receptor agonist peptide (TRAP)-mediated aggregation, TRAP-induced aggregations were also done in the presence of eptifibatide, a glycoprotein IIb/IIIa inhibitor (final concentration of 77 μg/mL in PRP and 65 μg/mL in whole blood).
(§4) Materials used included: • The four channel light transmission aggregometer instrument used for the platelet rich plasma studies was from Chrono-Log Corporation. • The ADP and collagen agonists used for platelet rich plasma studies were from Chrono-Log Corporation. • The four channel Multiplate whole blood impedance platelet aggregometer (IPA) was from DiaPharma Group. • The ADP and collagen agonists used for the whole blood studies were provided by DiaPharma Group. The TRAP agonist used in both the whole blood and PRP studies was also obtained from DiaPharma Group.

In assay [2] the test system is platelets in whole blood (ADP, collagen and TRAP agonists). Kind of assay: Platelet inhibition assay in whole blood (impedance platelet aggregometry, Multiplate System). The format is cell-based, human. Conditions: for dose dependence of the response in whole blood / reduction in response to agonists in whole blood (anti-platelet effect): all agonists; for dose dependence of the response in whole blood: 10-100 μM; for reduction in response to agonists in whole blood (anti-platelet effect): compound 10-100 μM. The method, then:
as §1, §2, §3, §4

Assay [3] concerns the target T1, t-PA (degradation of fibrin by tissue plasminogen activator) (Homo sapiens, UniProt P00750).
T1 construct: purchased Genentech
The experiment in a line: Fibrinolysis assay, microtiter plate turbidity (clot lysis time). The format is biochemical. Conditions: 500 nM Glu-plasminogen. The method, then: (§5) Coagulation and fibrinolysis were studied simultaneously in a 96-well microtiter plate-based assay system. Varying concentrations of drug in 50 μl buffer or an equivalent volume of saline were added to the wells. To this was added 100 μl of 6 μM fibrinogen, 1 μM Glu-plasminogen and 4 mM CaCl2. Reactions were initiated by addition of 50 μl of buffer containing 2 nM t-PA and 20 nM thrombin. Final concentrations of reagents in the wells were 3 μM fibrinogen, 500 nM Glu-plasminogen, 2 mM CaCl2, 0.05 nM t-PA, 5 nM thrombin and compounds of Formulas (II), (Ill), (IV) or (V) (0-400 μM). As positive controls, hirudin or D-Phe-Pro-Arg chloromethylketone (PPACK) was used in place of the subject compounds. Plates were incubated at 23° C. for 1 h with constant shaking and turbidity was monitored continuously at 405 nm. Clot times and lysis times were determined using instrument soft wave as the times to half maximal increase and decrease in turbidity, respectively. Data are expressed as the mean±SEM of three experiments, each done in triplicate.

Assay [4] deals with T2, thrombin (thrombin-mediated conversion of fibrinogen to fibrin) (Homo sapiens, UniProt P00734).
T2 construct: purchased Enzyme Research Laboratories
The experiment in a line: Coagulation assay, microtiter plate turbidity (clot formation, thrombin clot time). The format is biochemical. Here is the method:
as §5, with “[…] […]” for “Final concentrations of reagents in the wells were 3 μM fibrinogen, 500 nM Glu-plasminogen, 2 mM CaCl2, 0.05 nM t-PA, 5 nM thrombin and compounds of Formulas (II), (Ill), (IV) or (V) (0-400 μM). As positive controls, hirudin or D-Phe-Pro-Arg chloromethylketone (PPACK) was used in place of the subject compounds.”

The mark [5] stands for this setting: tested at 0-100 nM, 5 nM thrombin.

T1 sequence (P00750 36-562): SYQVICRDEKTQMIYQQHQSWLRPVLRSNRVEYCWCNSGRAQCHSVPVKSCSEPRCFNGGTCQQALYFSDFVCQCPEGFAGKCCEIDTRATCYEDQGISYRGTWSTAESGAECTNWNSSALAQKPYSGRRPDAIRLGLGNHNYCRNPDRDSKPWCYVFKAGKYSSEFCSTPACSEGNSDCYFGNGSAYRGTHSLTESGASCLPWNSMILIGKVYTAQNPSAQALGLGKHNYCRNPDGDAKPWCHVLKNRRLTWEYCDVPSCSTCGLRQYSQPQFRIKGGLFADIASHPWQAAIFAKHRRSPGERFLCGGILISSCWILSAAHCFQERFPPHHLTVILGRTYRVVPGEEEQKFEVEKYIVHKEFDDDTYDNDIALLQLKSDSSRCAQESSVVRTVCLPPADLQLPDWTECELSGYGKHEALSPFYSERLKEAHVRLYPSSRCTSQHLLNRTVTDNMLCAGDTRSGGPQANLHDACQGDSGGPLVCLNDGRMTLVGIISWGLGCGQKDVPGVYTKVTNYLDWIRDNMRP

In the case of “2-methyldisulfanyl-pyrimidine [2-methyldisulfanyl-pyrimidine (V)]”, in assay [1] (all agonists, highest concentration tested (100 μM)), the “inhibitory activity observed in PRP at highest concentration” value is reported as “surprising inhibitory activity”. Further, the “reduction of platelet response to all agonists in whole blood” value in assay [2] (100 μM) is recorded as “approximately 50%”. In assay [2], the “dose dependence of the response in whole blood” value (shortened to “dose dependence of the response”) was “positive dose dependent inhibition”.
For the molecule `CSSc1ccccn1` [2-methyldisulfanyl-pyridine (III), 2-methyldisulfanyl-pyridine], the “inhibitory activity observed in PRP” value in assay [1] is “no inhibitory activity”. The “dose dependence of the response” value in assay [2] is “does not appear to be dose dependent”. The “reduction in response to all agonists in whole blood” value in assay [2] (not dose dependent (10-100 μM)) is listed as around 25%.
For the molecule `CSSc1ccc(N)cc1` [4-methyldisulfanyl-phenylamine (IV), 4-methyldisulfanyl-phenylamine], in assay [1], the “inhibitory activity observed in PRP” value is recorded as “no inhibitory activity”. In assay [2], the “dose dependence of the response” value is “does not appear to be dose dependent” and the “reduction in response to agonists in whole blood (anti-platelet effect)” value is recorded as “Some reduction in response to all agonists”.
As for `CSSc1ccncc1` [4-methyldisulfanyl-pyridine (II), 4-methyldisulfanyl-pyridine], the “inhibitory activity observed in PRP” value in assay [1] is listed as “no inhibitory activity”. For the same molecule, in assay [2], the “dose dependence of the response” value is “does not appear to be dose dependent” and the “reduction in response to agonists in whole blood (anti-platelet effect)” value is recorded as “reduction in response to all agonists”.
For “D-Phe-Pro-Arg chloromethylketone [PPACK]”, the “effect on clot lysis times” value in assay [3] is “lysis times were shortened”.
hirudin: in assay [3], the “effect on clot lysis times” value was “lysis times were shortened”. Further, in assay [4] (compounds of the invention up to 400 μM, hirudin and PPACK as positive controls, 23° C., turbidity at 405 nm), the “effect on clot formation and lysis profiles” value was “inhibited clot formation and lysis”. Besides, in assay [4] (setting [5]), the “concentration causing complete inhibition of clotting” value is on record as 25 nM and the “lowest concentration with measurable effect on clotting” value is 6.25 nM.
